Assay results reported in patent publication US20070293517A1, “Derivatives Of Chemotherapeutic Agents With A Formaldehyde Releasing Moiety” (RAMOT AT TEL AVIV UNIVERSITY LTD., priority 2004, published 2007).

Assays:
[1] = tested on: 3LLD122 Lewis lung carcinoma; assay: Metastatic lung model (Lewis lung carcinoma); assay type: in vivo, mice
Method: Metastatic lung model: Female C57/BL mice, 6-10 weeks (Harlan, Israel) were […] implanted (in the tail vein) with 5×10^5 3LLD122 cells. Treatment with a derivative of a chemotherapeutic agent according to the present embodiments, for five days per week, commenced 24 hours post cell implantation. After 21 days the animals were sacrificed and their lung lesions were scored under an illuminated magnifying glass.

[2] = tested on: LS-1034; assay: Proliferation assay, LS-1034 cells; assay type: cell-based, human; settings: for IC90: LS-1034; for IC50: LS-1034, LS-1034
Text: (§1) Cells: The human breast cancer cell lines MCF-7 and MCF-7 DX, were obtained from Dr. R. Supino (Laboratorio Oncologia, Milano, Italy); the murine 3LLD122 highly metastatic Lewis lung carcinoma cell line was obtained from Dr. Eisenbach L, the Weizmann Inst., Israel. The following cell lines were purchased from the ATCC, USA: CT-26, an N-nitroso-N-methylurethane-(NNMU) induced murine (BALB-C) colon carcinoma; Panc02, a mouse (C57/Bl) pancreas adenocarcinoma; HT-49, a human colorectal adenocarcinoma; LS1034, a multidrug resistant human colorectal carcinoma; BxPC-3 human pancreas adenocarcinoma; MES-SA and MES-SA-DXS, human uterine sarcoma sensitive and multidrug resistant, respectively; and Human prostate carcinoma 22RV1, a subclone of CWR22 cells.
(§2) The cells were maintained in DMEM growth medium supplemented with 10% heat inactivated fetal calf serum, 2 mM glutamine, penicillin (250 units/ml) and streptomycin (125 μg/ml) in a humidified 5% CO2/air atmosphere at 37° C.
(§3) Proliferation assay: cells at a density of 3-5×10^4 cells/ml in 200 μl medium supplemented with 10% FCS were seeded in tissue culture 96-well plates for 24 hours, and were then exposed for 72 hours to a novel derivative of a chemotherapeutic agent (in quadruplicate) as specified. After 3 days, the cells were rinsed with PBS, and fixed with ethanol (70%) for 30 minutes. The ethanol was thereafter discarded, 200 μl of 10 μg/ml HOECHST fluorescent dye (Sigma) solubilized in PBS were added and the fluorescence was measured at 390-460 nm with a FluoStar fluorometer. MTT solution (10 ml of 5 mg/ml MTT (Sigma) in PBS) was added, and the plate was incubated for 3 hours. Formazan crystals were dissolved with 140 ml of 0.04 HCl-isopropanol. The optical density of the wells was measured with a microplate reader at 540 nm.
(§4) IC50 and IC90 values were determined from the best-fitted curve where the percentages of survival were 50 or 90 respectively.

[3] = tested on: various cell lines; assay: Dose response studies in various cell lines, absence and presence of semicarbazide; assay type: cell-based; settings: semicarbazide 0.5 mM
Method: as §3
Semicarbazide sensitive amine oxidase is a source of formaldehyde and is therefore a marker for the effect of formaldehyde. It has been shown that semicarbazide traps formaldehyde and reduces its concentration inside the cell (Nudelman et al. J. Med. Chem., 2005, 48, 1047-1054). Thus, the critical role of formaldehyde can be confirmed by reversal of formaldehyde-mediated effects by the addition of semicarbazide.
Tables 3 and 4 below, as well as FIGS. 7A, 7B and 8A-8D present the dose response studies performed with various cell lines in the absence and presence of semicarbazide, the formaldehyde trapping agent.

[4] = tested on: Panc 02; assay: Proliferation assay, Panc 02 cells; assay type: cell-based; settings: Mus musculus, Panc02
Text: as §1, §2, §3, §4

[5] = tested on: sensitive and resistant uterine cancer cells (MES-SA, MES-SA DXS); assay: Proliferation/survival, sensitive and resistant uterine cancer cells (both lines); assay type: cell-based, human
Text: as §1, §3, §4

[6] = tested on: human colon carcinoma cells (LS1034); assay: Xenograft flank colon carcinoma model, LS1034; assay type: in vivo; settings: nude mice sc implanted with LS1034
Method: (§5) Xenograft flank colon carcinoma models: Eight weeks old, male CD1 nude mice (Harlan, Israel) were inoculated sc in the flanks with 5×10^6 HT29 or LS1034 cells. When tumor volume reached 50-100 mm^3, treatment with derivatives of chemotherapeutic agents according to the present embodiments commenced and was given by gavage five times a week for the duration of the experiment at the specified doses. Tumor volume (determined by caliper) and body weights were measured twice weekly. Tumor volume was measured (mm) using the formula for an ellipsoid sphere: Length×Width^2/2=Volume (mm)^3
Survival was estimated by the Kaplan-Meier curves, and the difference in survival between the groups was analyzed by Wilcoxon's test and using a log-rank test chi-square (JMP 5.0.1.2, Chicago, Ill.).

[7] = tested on: MES SA DXS; assay: Proliferation assay, MES SA DXS cells; assay type: cell-based, human; settings: MES SA DXS
Text: as §1, §2, §3, §4

[8] = tested on: MES SA; assay: Proliferation assay, MES SA cells; assay type: cell-based, human
Text: as §1, §2, §3, §4

[9] = tested on: HT-29 human colon carcinoma; assay: Xenograft flank colon carcinoma model, HT29; assay type: in vivo; settings: nude mice
Method: as §5, with “(mm)^3 This commonly used formula was also used to calculate tumor weight, assuming unit density (1 mm^3=1 mg). Serum PSA or CEA: […] At the end of the experiment blood samples were drawn from the eyes of mice (anesthetized slightly by inhalation of ether) or from the hearts of sacrificed animals.” for “(mm)^3”

[10] = tested on: BXPC-3; assay: Proliferation assay, BXPC-3 cells; assay type: cell-based, human
Text: as §1, §2, §3, §4

[11] = tested on: HT-29; assay: Proliferation assay, HT-29 cells; assay type: cell-based, human; settings: for IC90: HT-29; for IC50: HT-29, HT-29
[12] = tested on: colon cancer cells (LS-1034 and HT-29); assay: Survival of colon cancer cells (both lines); assay type: cell-based, human
Method: Cells: The human breast cancer cell lines MCF-7 and MCF-7 DX, were obtained from Dr. R. Supino (Laboratorio Oncologia, Milano, Italy); the murine 3LLD122 highly metastatic Lewis lung carcinoma cell line was obtained from Dr. Eisenbach L, the Weizmann Inst., Israel. […]
Proliferation assay: cells at a density of 3-5×10^4 cells/ml in 200 μl medium supplemented with 10% FCS were seeded in tissue culture 96-well plates for 24 hours, and were then exposed for 72 hours to a novel derivative of a chemotherapeutic agent (in quadruplicate) as specified. […] The ethanol was thereafter discarded, 200 μl of 10 μg/ml HOECHST fluorescent dye (Sigma) solubilized in PBS were added and the fluorescence was measured at 390-460 nm with a FluoStar fluorometer. […] The optical density of the wells was measured with a microplate reader at 540 nm.
as §4

[13] = tested on: CT-26; assay: Proliferation assay, CT-26 cells; assay type: cell-based, murine
Text: as §1, §2, §3, §4

In the case of `O=c1c(F)cn([C@H]2CCCO2)c(=O)n1CO` [AN-436, 5-fluoro-1-((R)-tetrahydrofuran-2-yl)-3-(hydroxymethyl)pyrimidine-2,4(1H,3H)-dione], the “antimetastatic activity (number of lung lesions)” value [1] is reported as “significantly evident”, the IC90 ([2]; Homo sapiens) is reported as 153 ± 16 µM and the IC50 ([2]; Homo sapiens) is reported as 84 ± 8 µM. The IC50 ([2]; Homo sapiens, + SC 500 μM) was 132 ± 7 µM, the IC90 ([2]; + SC 500 μM) was 252 ± 30 µM and the “reduction of cell killing by co-treatment with semicarbazide” value [3] was “up to 3.5 folds”. For the same compound, the IC50 [4] was 96 ± 9 µM, the IC90 [4] was 219 ± 25 µM and the “maximal cell killing achieved” value [5] was 100%. For the same compound, the “survival after 82 days” value [6] was 75%, the IC50 ([7]; Homo sapiens) was 63 ± 4 µM and the IC90 ([7]; Homo sapiens) was 101 ± 2 µM. For the same compound, the IC50 ([7]; + SC 500 μM) was 203 ± 75 µM, the IC90 ([7]; + SC 500 μM) was 356 ± 144 µM and the IC50 ([8]; + SC 500 μM) was 182 ± 18 µM. It also gave an IC90 ([8]; + SC 500 μM) of 456 ± 189 µM, an IC50 ([8]; Homo sapiens) of 71 ± 12 µM and an IC90 ([8]; Homo sapiens) of 127 ± 19 µM. The “CEA level in serum” value [9] was “reduced the level significantly”, the tumor growth inhibition ([9]; P<<0.001) was “substantially inhibited tumor growth” and the “inhibitory effect on tumor growth compared with tegafur” value ([9]; p<0.05) was “significantly higher than the parent compound”. The IC50 ([10]; + SC 500 μM) was 160 ± 17 µM, the IC90 ([10]; + SC 500 μM) was 460 ± 78 µM and the IC50 ([10]; Homo sapiens) was 81 ± 9 µM. It also gave an IC90 ([10]; Homo sapiens) of 191 ± 47 µM, an IC90 ([11]; + SC 500 μM) of 303 ± 7 µM and an IC90 ([11]; Homo sapiens) of 115 ± 7 µM. For the same compound, the IC50 ([11]; Homo sapiens) was 67 ± 2 µM, the IC50 ([11]; Homo sapiens, + SC (semicarbazide) 500 μM) was 164 ± 12 µM and the “fold more potent than tegafur, based on IC50 values” [12] was ≥ 2.5 fold. For the same compound, the IC90 ([13]; CT-26, + SC 500 μM) was 296 ± 28 µM, the IC50 ([13]; Mus musculus, CT26, CT-26, + SC 500 μM) was 132 ± 26 µM and the IC50 ([13]; Mus musculus, CT26, CT-26) was 99 ± 5 µM. For the same compound, the IC90 ([13]; Mus musculus, CT26, CT-26) was 170 ± 9 µM.
